Data: ChEMBL document CHEMBL6096730, “Unlocking the Therapeutic Potential of Natural Products for Alzheimer's Disease” (J Med Chem, 2025)

Tests used:
Acetylcholinesterase = Acetylcholinesterase (Homo sapiens, UniProt P22303); experiment: Inhibition of human erythrocyte acetylcholinesterase using acetylthiocholine as substrate by Ellman's method
[1] = target: Amyloid-beta precursor protein (Homo sapiens) (UniProt P05067); experiment: Inhibition of self-mediated Amyloid beta (1 to 42) (unknown origin) aggregation at 20 uM measured every 5 mins by ThT fluorescence based assay relative to control
Sequence of Amyloid-beta precursor protein (Homo sapiens) (P05067 whole entry): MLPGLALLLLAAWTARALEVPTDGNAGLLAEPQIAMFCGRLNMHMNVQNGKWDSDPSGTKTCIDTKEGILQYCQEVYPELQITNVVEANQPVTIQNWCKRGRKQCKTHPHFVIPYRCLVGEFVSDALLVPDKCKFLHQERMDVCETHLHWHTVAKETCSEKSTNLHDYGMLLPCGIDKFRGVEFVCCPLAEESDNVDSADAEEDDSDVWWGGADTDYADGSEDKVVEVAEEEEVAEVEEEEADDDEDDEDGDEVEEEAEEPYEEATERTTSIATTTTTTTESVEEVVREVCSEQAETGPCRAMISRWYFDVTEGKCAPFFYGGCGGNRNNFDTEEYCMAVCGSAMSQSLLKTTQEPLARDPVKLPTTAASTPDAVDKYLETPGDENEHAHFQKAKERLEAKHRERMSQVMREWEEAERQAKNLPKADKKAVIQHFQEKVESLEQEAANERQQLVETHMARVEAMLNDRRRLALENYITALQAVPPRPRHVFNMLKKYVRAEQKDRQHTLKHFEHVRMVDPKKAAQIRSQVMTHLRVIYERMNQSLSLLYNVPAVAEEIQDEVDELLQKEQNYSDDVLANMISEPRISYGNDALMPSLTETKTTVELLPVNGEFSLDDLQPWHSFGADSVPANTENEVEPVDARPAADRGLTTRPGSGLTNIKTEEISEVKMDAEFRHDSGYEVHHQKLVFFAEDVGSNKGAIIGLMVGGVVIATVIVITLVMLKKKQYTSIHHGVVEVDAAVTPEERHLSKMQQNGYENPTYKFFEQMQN

Sequence of Acetylcholinesterase (P22303 whole entry): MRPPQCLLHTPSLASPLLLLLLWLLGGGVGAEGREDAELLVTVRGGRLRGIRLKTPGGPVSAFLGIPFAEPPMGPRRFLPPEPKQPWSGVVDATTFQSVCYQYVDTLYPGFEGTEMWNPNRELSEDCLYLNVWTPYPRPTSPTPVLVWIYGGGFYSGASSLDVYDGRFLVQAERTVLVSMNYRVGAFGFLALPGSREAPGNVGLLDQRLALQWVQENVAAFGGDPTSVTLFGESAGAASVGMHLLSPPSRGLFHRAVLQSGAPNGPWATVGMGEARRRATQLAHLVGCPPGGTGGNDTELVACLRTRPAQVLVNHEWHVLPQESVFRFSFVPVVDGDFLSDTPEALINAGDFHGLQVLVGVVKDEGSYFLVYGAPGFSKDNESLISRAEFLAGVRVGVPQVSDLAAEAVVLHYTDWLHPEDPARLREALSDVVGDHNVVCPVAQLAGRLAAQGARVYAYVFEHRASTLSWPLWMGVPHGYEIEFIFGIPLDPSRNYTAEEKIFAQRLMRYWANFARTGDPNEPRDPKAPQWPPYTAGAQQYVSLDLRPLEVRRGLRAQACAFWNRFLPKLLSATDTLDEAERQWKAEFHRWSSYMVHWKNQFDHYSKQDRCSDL

inhibition [1] | Compound | IC50 (Acetylcholinesterase)
– | COc1ccc([C@H]2O[C@@H](O)[C@H]3[C@@H]2C(=O)O[C@@H]3c2cc(OC)c3c(c2)OCO3)cc1OC | 300 nM
81% | COc1cc([C@H](O)[C@H](C)Oc2ccc(CCCO)cc2O)ccc1O | –
